Results taken from PMC8242268, “Transcriptomic and Proteomic Analysis of Mannitol-metabolism-associated Genes in Saccharina japonica” (Genomics, Proteomics & Bioinformatics, 2020).

Legend:
[1] = biological target: T1, SjaM1Pase2 (Saccharina japonica, UniProt A0A2Z4BXC0); assay: M1P phosphatase kinetics, Lineweaver-Burk; format: biochemical; details: apparent; 100 mM Tris-HCl buffer
T1 construct: codon-optimized synthetic gene, pGEX-6p-1 (EcoRI/NotI), E. coli BL21(DE3), GST-resin purified
T1 sequence (A0A2Z4BXC0 1-327): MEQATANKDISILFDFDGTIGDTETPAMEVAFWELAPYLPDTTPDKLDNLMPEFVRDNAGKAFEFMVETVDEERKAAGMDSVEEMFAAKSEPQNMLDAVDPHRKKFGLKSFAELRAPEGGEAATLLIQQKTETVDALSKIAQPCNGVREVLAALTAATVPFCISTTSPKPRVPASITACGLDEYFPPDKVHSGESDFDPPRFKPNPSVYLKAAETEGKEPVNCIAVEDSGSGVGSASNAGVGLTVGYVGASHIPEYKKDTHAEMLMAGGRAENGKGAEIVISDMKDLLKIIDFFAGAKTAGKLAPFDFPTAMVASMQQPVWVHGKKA

[2] = biological target: T2, SjaM1PDH2 (Saccharina japonica, UniProt A0A2Z4BWZ7); assay: F6P reduction kinetics, Lineweaver-Burk; format: biochemical; details: apparent; co-substrate NADH
T2 construct: codon-optimized synthetic gene, pET32a (EcoRI/NotI), E. coli BL21(DE3), His-resin purified
T2 sequence (A0A2Z4BWZ7 1-355): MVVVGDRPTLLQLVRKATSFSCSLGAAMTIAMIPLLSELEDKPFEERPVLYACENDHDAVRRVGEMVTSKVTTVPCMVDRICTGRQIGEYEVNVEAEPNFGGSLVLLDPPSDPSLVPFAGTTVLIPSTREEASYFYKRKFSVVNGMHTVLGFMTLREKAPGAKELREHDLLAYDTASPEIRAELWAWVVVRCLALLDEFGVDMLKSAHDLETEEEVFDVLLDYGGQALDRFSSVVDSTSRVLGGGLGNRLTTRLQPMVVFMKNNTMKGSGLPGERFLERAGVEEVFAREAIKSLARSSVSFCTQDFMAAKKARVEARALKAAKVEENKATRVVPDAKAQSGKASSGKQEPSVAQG

SMILES | Km [1] [µM] | Km [2] [µM]
O=P(O)(O)OC[C@@H](O)[C@@H](O)[C@H](O)[C@H](O)CO [M1P] | 20 | –
O=P(O)(O)OC[C@H]1OC(O)(CO)[C@@H](O)[C@@H]1O (some centres unmarked) [F6P] | – | 2020
